Test results reported in US11478451B1, “Macrocyclic chlorine substituted indole derivatives” (Bayer Aktiengesellschaft, priority 2017, dated 2022).
Several values for one entry are separate records, joined by “and”; a condition that tells them apart may be missing. Equal entries are not always repeated. Structures can show the parent of a compound that is named as a salt. Where two headings read alike, the source gives them in different places.

Experiments:
SUDHL5 cells [1] = assay: Induction of caspase-3/7 activity (Caspase-Glo 3/7), SUDHL5; format: cell-based; conditions: EC50, median, SUDHL5, 3 h treatment
How it was run: (§1)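 Caspase-3/7 activation serves as the apoptosis read-out for MCL-1 inhibition. Cells are treated with compound for 3 h at 37 °C and assayed with Caspase-Glo 3/7; values are corrected by subtracting medium-only background.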

SK-BR-3 cells = assay: Antiproliferation assay (CellTiter-Glo, 72 h), SK-BR-3; format: cell-based; conditions: SK-BR-3, 72 h, IC50, median, read-out: Antiproli SK-BR-3 [M] median
Protocol: (§2) Assessment of the Anti-Proliferative Effect of Compounds in Different Cell Lines
(§3) The impact of compounds on the proliferation of different cell lines was assessed using the CellTiter-Glo® Luminescent Cell Viability reagent from Promega (G7573).
(§4) In parallel, cells were plated in a reference (day 0) plate for time zero determination.
(§5) Rim wells were excluded. The cells were incubated for 72 h hours in a humidified incubator at 37° C. The day 0 plate was measured by adding 30 μL/well of CTG solution (CellTiter-Glo® Luminescent Cell Viability reagent, Promega G7573) to time zero wells in the reference plate followed by a 10 minutes incubation and luminescence reading at 0.1 ms. using the PHERAstar FS microplate reader (BMG Labtech).
(§6) After 72 h incubation, the treated plates were measured in the same way as the day 0 plate mentioned above.

SUDHL10 cells [2] = assay: Induction of caspase-3/7 activity (Caspase-Glo 3/7), SUDHL10; format: cell-based; conditions: EC50, median, SUDHL10, 3 h treatment
How it was run: as §1

HMC-1-8 cells = assay: Antiproliferation assay (CellTiter-Glo, 72 h), HMC-1-8; format: cell-based; conditions: IC50, median, HMC-1-8, 72 h, read-out: Antiproli HMC-1-8 [M] median
How it was run: (§7)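 Cells plated in treatment plates plus a day 0 reference plate; incubated 72 h at 37 °C; CellTiter-Glo added, 10 min incubation, luminescence read; day 0 plate read at time zero.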

SUDHL5 cells [3] = assay: Induction of cytotoxicity (CellTiter-Glo, 5 h), SUDHL5; conditions: SUDHL5, 5 h
SUDHL10 cells [4] = assay: Induction of cytotoxicity (CellTiter-Glo, 5 h), SUDHL10; conditions: SUDHL10, 5 h
AMO-1 cells = assay: Antiproliferation assay (CellTiter-Glo, 72 h), AMO-1; format: cell-based; conditions: IC50, median, AMO-1, 72 h, read-out: Antiproli AMO-1 [M] median
How it was run: as §7

NCI-H23 cells = assay: Antiproliferation assay (CellTiter-Glo, 72 h), NCI-H23; format: cell-based; conditions: NCI-H23, 72 h, read-out: Antiproli NCI-H23 [M] median
Protocol: as §2, §3, §4, §5, §6

A2058 cells = assay: Antiproliferation assay (CellTiter-Glo, 72 h), A2058; format: cell-based; conditions: A2058, 72 h, read-out: Antiproli A2058 [M] median
Protocol: as §2, §3, §4, §5, §6

MV-4-11 cells = assay: Antiproliferation assay (CellTiter-Glo, 72 h), MV-4-11; format: cell-based; conditions: IC50, median, MV-4-11, 72 h, read-out: Antiproli MV-4-11 [M] median
Protocol: as §2, §3, §4, §5, §6

SUDHL5 cells [5] = assay: Antiproliferation assay (CellTiter-Glo, 72 h), SUDHL5; format: cell-based; conditions: IC50, median, SUDHL5, 72 h, read-out: Antiproli SUDHL5 [M] (median)
How it was run: as §7

DMS-114 cells = assay: Antiproliferation assay (CellTiter-Glo, 72 h), DMS-114; format: cell-based; conditions: IC50, median; DMS-114, 72 h; read-out: Antiproli DMS-114 [M] median
How it was run: as §7

SNU-389 cells = assay: Antiproliferation assay (CellTiter-Glo, 72 h), SNU-389; format: cell-based; conditions: IC50, median; SNU-389, 72 h; read-out: Antiproli SNU-389 [M] median
How it was run: as §7

SUDHL5 cells [6] = tested on: SUDHL5 cells
SUDHL10 cells [7] = tested on: SUDHL10 cells
BCL-XL = BCL-XL (Homo sapiens (Human), UniProt Q07817); assay: Protein-protein interaction assay BCL-XL/Bad BH3 peptide (BCL-XL assay), TR-FRET; format: binding; conditions: IC50, median
Protocol: The dose-dependent inhibition by the compounds described in this invention of the interaction between BCL-XL and the BH3 domain of Bad (both human) was determined using a steady state binding competition assay with time-resolved fluorescence energy transfer (TR-FRET) readout.
For that, 100-fold concentrated DMSO solutions were prepared by serial dilutions (1:3.4) of a 2 mM stock solution in a clear, 384-well microtiter plate (Greiner Bio-One, Frickenhausen, Germany). From there, 50 nl were transferred in a dark test plate (Greiner Bio-One, Frickenhausen, Germany). […] This was followed by a 10-minute incubation step at 22° C. for pre-equilibration of the putative complex between His-BCL-XL and the compounds.
(§8) The mixture was incubated in the dark for one hour at 22° C. and then overnight at 4° C.
(§9) The resulting data (ratio) were normalized, taking 0% inhibition as the mean value of control measurements (usually 32 data points) where all reagents were included. In this case 50 nl DMSO were used instead of compounds. […] IC50 values were determined by regression analysis based on a 4 parameter equation (minimum, maximum, IC50, Hill; Y=Max+(Min−Max)/(1+(X/IC50)^Hill) using the Screener Software (Genedata).

MCL-1 = MCL-1 (Homo sapiens (Human), UniProt Q07820, K194A/K197A/R201A); assay: Protein-protein interaction assay MCL-1/Noxa BH3 peptide (MCL-1 assay), TR-FRET; format: binding; conditions: IC50, median; MCL-1/Noxa BH3 TR-FRET
Protocol: The dose-dependent inhibition by the compounds described in this invention of the interaction between MCL-1 and the BH3 domain of Noxa (both human) was determined using a steady state binding competition assay with time-resolved fluorescence energy transfer (TR-FRET) readout. […] The MBP-MCL-1 was purchased from Beryllium (Bedford, Mass., USA). The expression and purification of this protein construct has been described elsewhere (DOI:10.1371/journal.pone.0125010). The Noxa BH3-derived peptide can be obtained from e.g. Biosyntan (Berlin, Germany), 50812.1.
For that, 100-fold concentrated DMSO solutions were prepared by serial dilutions (1:3.4) of a 2 mM stock solution in a clear, 384-well microtiter plate (Greiner Bio-One, Frickenhausen, Germany). From there, 50 nl were transferred in a dark test plate (Greiner Bio-One, Frickenhausen, Germany). […] This was followed by a 10-minute incubation step at 22° C. for pre-equilibration of the putative complex between MBP-MCL-1 and the compounds.
as §8, §9

BCL-2 = BCL-2 (Homo sapiens (Human), UniProt P10415); assay: Protein-protein interaction assay BCL-2/Bad BH3 peptide (BCL-2 assay), TR-FRET; format: binding; conditions: IC50, median; BCL-2/Bad BH3 TR-FRET
Protocol: The dose-dependent inhibition by the compounds described in this invention of the interaction between BCL-2 and the BH3 domain of Bad (both human) was determined using a steady state binding competition assay with time-resolved fluorescence energy transfer (TR-FRET) readout.
For that, 100-fold concentrated DMSO solutions were prepared by serial dilutions (1:3.4) of a 2 mM stock solution in a clear, 384-well microtiter plate (Greiner Bio-One, Frickenhausen, Germany). From there, 50 nl were transferred in a dark test plate (Greiner Bio-One, Frickenhausen, Germany). […] This was followed by a 10-minute incubation step at 22° C. for pre-equilibration of the putative complex between His-BCL-2 and the compounds.
as §8, §9

T47D cells = assay: Antiproliferation assay (CellTiter-Glo, 72 h), T47D; format: cell-based; conditions: IC50, median, T47D (head printed T4713), read-out: Antiproli T4713 [M] median
Protocol: as §2, §3, §4, §5, §6

SUDHL10 cells [8] = assay: Antiproliferation assay (CellTiter-Glo, 72 h), SUDHL10; format: cell-based; conditions: IC50, median; SUDHL10, 72 h; read-out: Antiproli SUDHL10 [M] (median)
Protocol: as §2, §3, §4, §5, §6

[9] = read-out: Cytotox SUDHL5 [M] (median), IC50, median
[10] = read-out: Cytotox SUDHL10 [M] (median), IC50, median

Chain of BCL-2 (P10415 1-211): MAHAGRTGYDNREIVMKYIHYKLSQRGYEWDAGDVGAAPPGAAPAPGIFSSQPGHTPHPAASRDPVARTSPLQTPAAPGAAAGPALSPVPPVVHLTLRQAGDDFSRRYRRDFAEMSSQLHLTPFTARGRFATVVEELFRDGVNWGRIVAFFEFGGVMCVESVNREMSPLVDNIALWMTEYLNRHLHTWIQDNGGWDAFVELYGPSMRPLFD
Chain of BCL-XL (Q07817 1-212): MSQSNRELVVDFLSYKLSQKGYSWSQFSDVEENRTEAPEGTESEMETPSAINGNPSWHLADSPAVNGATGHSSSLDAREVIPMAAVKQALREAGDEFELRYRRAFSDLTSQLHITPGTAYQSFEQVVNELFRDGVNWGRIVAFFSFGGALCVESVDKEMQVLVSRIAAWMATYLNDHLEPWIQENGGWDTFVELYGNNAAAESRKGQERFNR
Chain of MCL-1 (Q07820 whole entry K194A/K197A/R201A, looked up, the tested form may be a part): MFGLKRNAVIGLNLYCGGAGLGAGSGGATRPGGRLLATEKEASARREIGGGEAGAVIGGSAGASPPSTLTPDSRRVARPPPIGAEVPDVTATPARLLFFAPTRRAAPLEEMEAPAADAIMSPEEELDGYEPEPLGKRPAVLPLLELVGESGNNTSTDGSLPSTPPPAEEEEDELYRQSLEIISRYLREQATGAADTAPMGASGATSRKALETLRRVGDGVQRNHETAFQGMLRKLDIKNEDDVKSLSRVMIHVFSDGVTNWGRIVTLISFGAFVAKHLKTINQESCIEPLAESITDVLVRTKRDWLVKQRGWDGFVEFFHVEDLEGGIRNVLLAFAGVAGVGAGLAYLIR

Structure (SMILES) | EC50 (SUDHL5 cells [1]) [µM] | EC50 (SUDHL10 cells [2]) [µM] | IC50 (HMC-1-8 cells) [M] | IC50 (DMS-114 cells) [M] | IC50 (SUDHL5 cells [3]; [9]) [M] | IC50 (SUDHL10 cells [4]; [10]) [M] | IC50 (AMO-1 cells) [M] | IC50 (SNU-389 cells) [M] | IC50 (A2058 cells; IC50, median) [M] | IC50 (MV-4-11 cells) [M] | IC50 (SUDHL5 cells [5]) [M] | further results
Cc1c2c(nn1C)COCCCCn1c(C(=O)O)c(CCCOc3cccc4ccccc34)c3ccc(Cl)c-2c31 (racemic) [Example 25, (rac)-4-chloro-2,3-dimethyl-7-[3-(naphthalen-1-yloxy)propyl]-2,10,11,12,13,15-hexahydropyrazolo[4′,3′:9,10][1,6]oxazacycloundecino[8,7,6-hi]indole-8-carboxylic acid] | – | – | – | – | – | – | – | – | – | – | – | EC50 (SUDHL5 cells [1]; Homo sapiens, SU-DHL-5, 3 h): 0.39 µM; IC50 (SK-BR-3 cells; Homo sapiens): 1.29e-05 M; EC50 (SUDHL10 cells [2]; Homo sapiens, SU-DHL10, 3 h): 1.2 µM; IC50 (HMC-1-8 cells; 72 h): 6.5e-06 M; IC50 (SUDHL5 cells [3]; Homo sapiens, SU-DHL-5, 5 h, read-out: Cytotox SUDHL5 [M] (median), IC50, median): 5.3e-07 M; IC50 (SUDHL10 cells [4]; Homo sapiens, SU-DHL10, 5 h, read-out: Cytotox SUDHL10 [M] (median), IC50, median): 9.3e-07 M; IC50 (AMO-1 cells; Homo sapiens, AMO1, 72 h): 1.3e-06 M; IC50 (NCI-H23 cells; Homo sapiens): 6.01e-06 M; IC50 (A2058 cells; Homo sapiens): 2.19e-05 M; IC50 (MV-4-11 cells; Homo sapiens, MV4-11, 72 h): 2.78e-06 M; IC50 (SUDHL5 cells [5]; Homo sapiens, SU-DHL-5, 72 h): 5.6e-07 M
Cc1c2c(nn1C)COCCCCn1c(C(=O)O)c(CCCOc3cccc4ccccc34)c3ccc(Cl)c-2c31 (single isomer, unassigned; enantiomer 1) [Example 26, 4-chloro-2,3-dimethyl-7-[3-(naphthalen-1-yloxy)propyl]-2,10,11,12,13,15-hexahydropyrazolo-[4′,3′:9,10][1,6]oxazacycloundecino[8,7,6-hi]indole-8-carboxylic acid-N-ethylethanamine salt (Enantiomer 1)] | 0.25 | 0.41 | 2.9e-06 | 1.76e-06 | 4.6e-07 | 5e-07 | 1e-06 | 1.66e-06 | 1.49e-05 | 1.81e-06 | 5.8e-07 | IC50 (SK-BR-3 cells): 3.3e-06 M; IC50 (NCI-H23 cells; IC50, median): 2.32e-06 M
CCc1c2c(nn1C)COC/C=C\Cn1c(C(=O)O)c(CCCOc3cccc4ccccc34)c3ccc(Cl)c-2c31 (racemic) [Example 18, (rac)-(11Z)-4-chloro-3-ethyl-2-methyl-7-[3-(naphthalen-1-yloxy)propyl]-2,10,13,15-tetrahydropyrazolo[4′,3′:9,10][1,6]oxazacycloundecino[8,7,6-hi]indole-8-carboxylic acid] | 1.1 | 1.3 | – | – | – | – | – | – | – | 4.71e-06 | 1.4e-06 | IC50 (SUDHL5 cells [6]): 1.2 µM; IC50 (SUDHL10 cells [7]): 1.3 µM; IC50 (BCL-XL): > 20 µM; IC50 (MCL-1): 0.0013 µM; IC50 (BCL-2): > 20 µM and 19 µM and 20 µM
Cc1c2c(nn1C)COCCCCn1c(C(=O)O)c(CCCOc3cccc4cc(F)ccc34)c3ccc(Cl)c-2c31 (single isomer, unassigned; enantiomer 1) [Example 15, (+)-4-chloro-7-{3-[(6-fluoronaphthalen-1-yl)oxy]propyl}-2,3-dimethyl-2,10,11,12,13,15-hexahydropyrazolo[4′,3′:9,10][1,6]oxazacycloundecino[8,7,6-hi]indole-8-carboxylic acid-N-ethylethanamine salt (Enantiomer 1)] | 0.12 | 0.15 | 1.4e-06 | 6.42e-07 | 1.4e-07 | 2.3e-07 | 5.3e-07 | 9.28e-07 | 5.86e-06 | 4.61e-07 | 1.9e-07 | IC50 (T47D cells): 1.19e-05 M; IC50 (SUDHL10 cells [8]): 2e-07 M
